From PubChem BioAssay (NCI)
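The compound was tested at five concentrations on cells cultured in 96-well plates, with a 48-hour exposure period. TGI marks complete inhibition of growth.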

How the values were obtained:
Test in all cases: NCI anticancer screen, dose series, 48 h
MDA-MB-231 breast = tested on: MDA-MB-231 breast
IGROV1 ovarian = tested on: IGROV1 ovarian
LOX IMVI melanoma = tested on: LOX IMVI melanoma
SN12C renal = tested on: SN12C renal
OVCAR-3 ovarian = tested on: OVCAR-3 ovarian
MOLT-4 leukemia = tested on: MOLT-4 leukemia
CCRF-CEM leukemia = tested on: CCRF-CEM leukemia
A498 renal = tested on: A498 renal
T-47D breast = tested on: T-47D breast
UACC-62 melanoma = tested on: UACC-62 melanoma
SK-MEL-5 melanoma = tested on: SK-MEL-5 melanoma
NCI/ADR-RES ovarian = tested on: NCI/ADR-RES ovarian
HCT-15 colon = tested on: HCT-15 colon
SF-539 CNS = tested on: SF-539 CNS
NCI-H226 lung = tested on: NCI-H226 lung
MCF7 breast = tested on: MCF7 breast
OVCAR-5 ovarian = tested on: OVCAR-5 ovarian
NCI-H522 lung = tested on: NCI-H522 lung
UACC-257 melanoma = tested on: UACC-257 melanoma
MDA-MB-435 = tested on: MDA-MB-435
BT-549 breast = tested on: BT-549 breast
PC-3 prostate = tested on: PC-3 prostate
HT29 colon = tested on: HT29 colon
ACHN renal = tested on: ACHN renal
786-0 renal = tested on: 786-0 renal
SK-OV-3 ovarian = tested on: SK-OV-3 ovarian
HOP-62 NSCLC = tested on: HOP-62 NSCLC
M14 melanoma = tested on: M14 melanoma
SNB-19 CNS = tested on: SNB-19 CNS
DU-145 prostate = tested on: DU-145 prostate
COLO 205 colon = tested on: COLO 205 colon
K-562 leukemia = tested on: K-562 leukemia
SW-620 colon = tested on: SW-620 colon
OVCAR-8 ovarian = tested on: OVCAR-8 ovarian
TK-10 renal = tested on: TK-10 renal
KM12 colon = tested on: KM12 colon
HOP-92 NSCLC = tested on: HOP-92 NSCLC
NCI-H460 lung = tested on: NCI-H460 lung
SF-268 CNS = tested on: SF-268 CNS
OVCAR-4 ovarian = tested on: OVCAR-4 ovarian
HCC-2998 colon = tested on: HCC-2998 colon
RPMI-8226 leukemia = tested on: RPMI-8226 leukemia
NCI-H23 lung = tested on: NCI-H23 lung
SF-295 CNS = tested on: SF-295 CNS
CAKI-1 renal = tested on: CAKI-1 renal
U251 CNS = tested on: U251 CNS
SNB-75 CNS = tested on: SNB-75 CNS
A549 NSCLC = tested on: A549 NSCLC
MDA-N = tested on: MDA-N
UO-31 renal = tested on: UO-31 renal
SK-MEL-28 melanoma = tested on: SK-MEL-28 melanoma
RXF 393 renal = tested on: RXF 393 renal
MALME-3M melanoma = tested on: MALME-3M melanoma
SR leukemia = tested on: SR leukemia
HCT-116 colon = tested on: HCT-116 colon
EKVX NSCLC = tested on: EKVX NSCLC
HL-60(TB) leukemia = tested on: HL-60(TB) leukemia
SK-MEL-2 melanoma = tested on: SK-MEL-2 melanoma
HS 578T breast = tested on: HS 578T breast

For `O=C(CSc1nnc(SCC(=O)NN=C2CCCCC2)s1)NN=C1CCCCC1`, the TGI (MDA-MB-231 breast) was greater than 100 µM, the TGI (IGROV1 ovarian) was greater than 100 µM and the TGI (LOX IMVI melanoma) was greater than 100 µM. It also gave a TGI (SN12C renal) greater than 100 µM, a TGI (OVCAR-3 ovarian) greater than 100 µM and a TGI (MOLT-4 leukemia) greater than 100 µM. It also gave a TGI (CCRF-CEM leukemia) greater than 100 µM, a TGI (A498 renal) greater than 100 µM and a TGI (T-47D breast) greater than 100 µM. It also gave a TGI (UACC-62 melanoma) greater than 100 µM, a TGI (SK-MEL-5 melanoma) greater than 100 µM and a TGI (NCI/ADR-RES ovarian) greater than 100 µM. The TGI (HCT-15 colon) was greater than 100 µM, the TGI (SF-539 CNS) was greater than 100 µM and the TGI (NCI-H226 lung) was greater than 100 µM. It also gave a TGI (MCF7 breast) greater than 100 µM, a TGI (OVCAR-5 ovarian) greater than 100 µM and a TGI (NCI-H522 lung) greater than 100 µM. The TGI (UACC-257 melanoma) was greater than 100 µM, the TGI (MDA-MB-435) was greater than 100 µM and the TGI (BT-549 breast) was greater than 100 µM. For the same molecule, the TGI (PC-3 prostate) was greater than 100 µM, the TGI (HT29 colon) was greater than 100 µM and the TGI (ACHN renal) was greater than 100 µM. For the same molecule, the TGI (786-0 renal) was greater than 100 µM, the TGI (SK-OV-3 ovarian) was greater than 100 µM and the TGI (HOP-62 NSCLC) was greater than 100 µM. For the same molecule, the TGI (M14 melanoma) was greater than 100 µM, the TGI (SNB-19 CNS) was greater than 100 µM and the TGI (DU-145 prostate) was greater than 100 µM. The TGI (COLO 205 colon) was greater than 100 µM, the TGI (K-562 leukemia) was greater than 100 µM and the TGI (SW-620 colon) was greater than 100 µM. It also gave a TGI (OVCAR-8 ovarian) greater than 100 µM, a TGI (TK-10 renal) greater than 100 µM and a TGI (KM12 colon) greater than 100 µM. For the same molecule, the TGI (HOP-92 NSCLC) was greater than 100 µM, the TGI (NCI-H460 lung) was greater than 100 µM and the TGI (SF-268 CNS) was greater than 100 µM. The TGI (OVCAR-4 ovarian) was greater than 100 µM, the TGI (HCC-2998 colon) was greater than 100 µM and the TGI (RPMI-8226 leukemia) was greater than 100 µM. For the same molecule, the TGI (NCI-H23 lung) was greater than 100 µM, the TGI (SF-295 CNS) was greater than 100 µM and the TGI (CAKI-1 renal) was greater than 100 µM. It also gave a TGI (U251 CNS) greater than 100 µM, a TGI (SNB-75 CNS) greater than 100 µM and a TGI (A549 NSCLC) greater than 100 µM. For the same molecule, the TGI (MDA-N) was greater than 100 µM, the TGI (UO-31 renal) was greater than 100 µM and the TGI (SK-MEL-28 melanoma) was greater than 100 µM. The TGI (RXF 393 renal) was greater than 100 µM, the TGI (MALME-3M melanoma) was greater than 100 µM and the TGI (SR leukemia) was greater than 100 µM. For the same molecule, the TGI (HCT-116 colon) was greater than 100 µM and the TGI (EKVX NSCLC) was greater than 100 µM.
`OC(c1ccoc1)c1cc2ccccc2s1` (configuration not stated) showed a TGI (MDA-MB-231 breast) greater than 10 µM, a TGI (IGROV1 ovarian) greater than 10 µM and a TGI (LOX IMVI melanoma) greater than 10 µM. The TGI (SN12C renal) was greater than 10 µM, the TGI (OVCAR-3 ovarian) was greater than 10 µM and the TGI (MOLT-4 leukemia) was greater than 10 µM. It also gave a TGI (CCRF-CEM leukemia) greater than 10 µM, a TGI (T-47D breast) greater than 10 µM and a TGI (UACC-62 melanoma) greater than 10 µM. For the same molecule, the TGI (SK-MEL-5 melanoma) was greater than 10 µM, the TGI (NCI/ADR-RES ovarian) was greater than 10 µM and the TGI (HCT-15 colon) was greater than 10 µM. It also gave a TGI (HL-60(TB) leukemia) greater than 10 µM, a TGI (SF-539 CNS) greater than 10 µM and a TGI (NCI-H226 lung) greater than 10 µM. For the same molecule, the TGI (MCF7 breast) was greater than 10 µM, the TGI (OVCAR-5 ovarian) was greater than 10 µM and the TGI (SK-MEL-2 melanoma) was greater than 10 µM. For the same molecule, the TGI (NCI-H522 lung) was greater than 10 µM, the TGI (UACC-257 melanoma) was greater than 10 µM and the TGI (MDA-MB-435) was greater than 10 µM. It also gave a TGI (PC-3 prostate) greater than 10 µM, a TGI (HT29 colon) greater than 10 µM and a TGI (ACHN renal) greater than 10 µM. The TGI (786-0 renal) was greater than 10 µM, the TGI (SK-OV-3 ovarian) was greater than 10 µM and the TGI (HOP-62 NSCLC) was greater than 10 µM. The TGI (M14 melanoma) was greater than 10 µM, the TGI (SNB-19 CNS) was greater than 10 µM and the TGI (DU-145 prostate) was greater than 10 µM. It also gave a TGI (COLO 205 colon) greater than 10 µM, a TGI (K-562 leukemia) greater than 10 µM and a TGI (SW-620 colon) greater than 10 µM. The TGI (HS 578T breast) was greater than 10 µM, the TGI (OVCAR-8 ovarian) was greater than 10 µM and the TGI (TK-10 renal) was greater than 10 µM. It also gave a TGI (KM12 colon) greater than 10 µM, a TGI (HOP-92 NSCLC) greater than 10 µM and a TGI (NCI-H460 lung) greater than 10 µM. The TGI (SF-268 CNS) was greater than 10 µM, the TGI (OVCAR-4 ovarian) was greater than 10 µM and the TGI (HCC-2998 colon) was greater than 10 µM. It also gave a TGI (RPMI-8226 leukemia) greater than 10 µM, a TGI (NCI-H23 lung) greater than 10 µM and a TGI (SF-295 CNS) greater than 10 µM. It also gave a TGI (CAKI-1 renal) greater than 10 µM, a TGI (U251 CNS) greater than 10 µM and a TGI (SNB-75 CNS) greater than 10 µM. For the same molecule, the TGI (A549 NSCLC) was greater than 10 µM, the TGI (MDA-N) was greater than 10 µM and the TGI (UO-31 renal) was greater than 10 µM. It also gave a TGI (SK-MEL-28 melanoma) greater than 10 µM, a TGI (RXF 393 renal) greater than 10 µM and a TGI (SR leukemia) greater than 10 µM. For the same molecule, the TGI (HCT-116 colon) was greater than 10 µM and the TGI (EKVX NSCLC) was greater than 10 µM.
